Measurements taken from patent US8058227B2, “Method of treating fibrosis in a subject in need thereof comprising administering a composition comprising a CSD” (Medical University of South Carolina, priority 2006, dated 2011).
“Also recorded” adds a separate entry of the source. Where no end group is shown, it is not given here.

Tests used:
[1] = system: normal lung fibroblasts (NLF); experiment: Collagen and ASMA expression in NLF treated with CSD and its subdomains; format: cell-based, human; conditions: for ASMA expression: peptides at 1, 3, and 5 μM
Description: (§1) The indicated cell types (NLF and SLF) were cultured as described with 0, 1, 3, or 5 μM of the indicated peptides. Collagen in the medium and ASMA and actin (loading control) in the cell layer were detected by Western blotting. Blots were quantified densitometrically. The level of collagen and ASMA in cells treated with no peptide (divided by the level of actin) was set to 100 arbitrary units. Because SLF express higher levels of collagen and ASMA than do NLF, 100 arbitrary of collagen in SLF is equivalent to 195 arbitrary units of collagen in NLF and 100 arbitrary units of ASMA in SLF is equivalent to 255 arbitrary units of ASMA in NLF. The data presented are the average of the densitometric quantification of three independent experiments.
(§2) To compare the activity of CSD to its subdomains, five subdomains [A (82-88 amino acids), B (89-95), C (96-101), AB (82-95) and BC (89-101)] were synthesized in fusion with the Antennapedia internalization sequence and added to culture medium at 1, 3, and 5 μM. […] Very different results were obtained when examining ASMA expression.

[2] = system: scleroderma lung fibroblasts (SLF); experiment: Collagen and ASMA expression in SLF treated with CSD and its subdomains; format: cell-based, human; conditions: for inhibition of collagen expression / inhibition of ASMA expression: 5 μM peptide; for ASMA expression: peptides at 1, 3, and 5 μM
Description: as §1, §2

[3] = system: eNOS; conditions: endothelial cells; Bernatchez et al. (4); cited from earlier work
[4] = system: normal lung fibroblasts (NLF); experiment: Kinase (signaling) inhibitor treatment of NLF, Western blotting; format: cell-based, human; set-up: key to Collagen / Tenascin-C / ASMA / Ph-ERK / Ph-JNK / Ph-Akt: a decrease ↓; an increase ↑; no effect —; conditions: for ASMA expression / JNK activation / Akt activation / ERK activation / collagen expression / tenascin-C expression: 10 μM inhibitor, result in words; for ASMA / Ph-Akt / Ph-ERK / Ph-JNK / Collagen / Tenascin-C: inhibitor 10 μM, serum-free medium, Western blotting; for ASMA / Ph-Akt / Ph-ERK / Ph-JNK: cell layer; for Collagen / Tenascin-C: culture medium
Source text: (§3) Fibroblasts were derived from lung tissue obtained at autopsy from scleroderma patients (SLF) and from age-, race-, and sex-matched normal subjects (NLF) and cultured as previously described (44). Cells were used in passages 2-4. The group of scleroderma patients fulfilled the criteria of American college of Rheumatology for the diagnosis of scleroderma with lung involvement. Normal human lung tissue was obtained from the Brain and Tissue Bank for Developmental Disorders (Baltimore, Md.) or from the National Disease Research Interchange (Philadelphia, Pa.). Scleroderma lung tissue was obtained from the Division of Pathology and Laboratory Medicine at the Medical University of South Carolina (MUSC). The study was approved by the Institutional Review Board for Human Subject Research at the MUSC.
(§4) U0126 (MEK inhibitor), SP600125 (JNK inhibitor), LY294002 (PI3 kinase inhibitor) and Akt inhibitor VIII were purchased from Calbiochem and dissolved in DMSO (mM). Cells in 6-well plates were treated with 10 μM of inhibitors in serum-free medium for 6 h (U0126) or 24 h for the other inhibitors prior to the harvesting of cells and medium.
(§5) Cell layers were harvested in boiling SDS-PAGE sample buffer; medium was dialyzed, lyophilized, and resuspended in sample buffer. Aliquots of culture medium or of cell layer representing material derived from the same number of cells was probed using the following primary antibodies and appropriate secondary antibodies. Culture medium: goat anti-human collagen I (AB758P) and rabbit anti-human tenascin-C (AB19011) from Chemicon International (Temecula, Calif.). Cell layer: rabbit antibodies against PKCα (sc-208), PKCε (sc-214), activated JNK (sc-12882), activated Akt Thr 308 (sc-166646R) and caveolin-1 (sc-894) from Santa Cruz Biotechnology (Santa Cruz, Calif.); rabbit antibodies against ERK 1/2 (9102), activated ERK 1/2 (9106), JNK (9252), Akt (9272), MEK 1/2 (9122), and activated MEK 1/2 (9121) from Cell Signaling (Beverly, Mass.); mouse monoclonal anti-ASMA (clone 1A4) from Sigma (Saint Louis, Mo.), and mouse monoclonal anti-actin (MAB1501) from Chemicon International (Temecula, Calif.).
(§6) Immunoreactive bands were quantified by densitometry using the Image 1.32J NIH software. For statistical analysis the raw densitometric data were processed and analyzed using the Prism 3.0 (GraphPad Software Inc.) statistical analysis software.

[5] = system: scleroderma lung fibroblasts (SLF); experiment: Kinase (signaling) inhibitor treatment of SLF, Western blotting; format: cell-based, human; set-up: key to Collagen / Tenascin-C / ASMA / Ph-ERK / Ph-JNK / Ph-Akt: a decrease ↓; an increase ↑; no effect —; conditions: for JNK activation / ASMA expression / Akt activation / ERK activation / collagen expression / tenascin-C expression: 10 μM inhibitor, result in words; for ASMA / Ph-Akt / Ph-ERK / Ph-JNK / Collagen / Tenascin-C: inhibitor 10 μM, serum-free medium, Western blotting; for ASMA / Ph-Akt / Ph-ERK / Ph-JNK: cell layer; for Collagen / Tenascin-C: culture medium
Source text: as §3, §4, §5, §6

[6] = any concentration tested (1, 3, and 5 μM)

With “AB: CSD subdomain AB (82-95) synthesized in fusion with the Antennapedia internalization sequence (DGIWKASFTTFTVT; also: fused to Antennapedia internalization sequence; UniProt Q03135 82-95, looked up, fragment)” the “inhibition of collagen expression” value ([1]; 5 μM peptide) was “approximately 50%”, the ASMA expression [1] was “did not inhibit” and the “inhibition of collagen expression” value [2] was “approximately 50%”. For the same molecule, the ASMA expression [2] was “did not inhibit” and the eNOS activity [3] was “also inhibited”.

With “BC: CSD subdomain BC (89-101) synthesized in fusion with the Antennapedia internalization sequence (FTTFTVTKYWFYR; also: fused to Antennapedia internalization sequence; UniProt Q03135 89-101, looked up, fragment)” the collagen expression ([1]; 3 μM peptide) was “completely inhibited”, the “inhibition of ASMA expression” value ([1]; 5 μM peptide) was “about 80%” and the ASMA expression [1] was “inhibited”. The collagen expression ([2]; 3 μM peptide) was “completely inhibited”, the “inhibition of ASMA expression” value [2] was “about 80%” and the ASMA expression [2] was “inhibited”. The eNOS activity [3] was “also inhibited”.

With “A: CSD subdomain A (82-88 amino acids) synthesized in fusion with the Antennapedia internalization sequence (DGIWKAS; also: fused to Antennapedia internalization sequence; UniProt Q03135 82-88, looked up, fragment)” the collagen expression [1, 6] was “did not inhibit”, the ASMA expression [1] was “did not inhibit” and the collagen expression [2, 6] was “did not inhibit”. For the same molecule, the ASMA expression [2] was “did not inhibit”.

In the case of `O=c1cc(N2CCOCC2)oc2c(-c3ccccc3)cccc12` [LY294002], the ASMA expression [4] is reported as “no effect”, the JNK activation [4] is reported as “no effect” and the ASMA [4] is reported as “—”. For the same molecule, the Ph-Akt [4] was “↓”, the Ph-ERK [4] was “↑” and the Ph-JNK [4] was “—”. The Collagen [4] was “↓”, the Tenascin-C [4] was “↓” and the JNK activation [5] was “no effect”. For the same molecule, the ASMA [5] was “↓”, the Ph-Akt [5] was “↓” and the Ph-ERK [5] was “↑”. For the same molecule, the Ph-JNK [5] was “—”, the Collagen [5] was “↓” and the Tenascin-C [5] was “↓”.

For `O=c1[nH]c2ccccc2n1C1CCN(Cc2ccc(-c3nc4cc5[nH]cnc5cc4nc3-c3ccccc3)cc2)CC1` [Akt inhibitor VIII], the ASMA expression [4] was “no effect”, the Akt activation [4] was “inhibited” and the ERK activation [4] was “enhanced”. The JNK activation [4] was “no effect”, the collagen expression [4] was “inhibited” and the tenascin-C expression [4] was “inhibited”. The ASMA [4] was “—”, the Ph-Akt [4] was “↓” and the Ph-ERK [4] was “↑”. For the same molecule, the Ph-JNK [4] was “—”, the Collagen [4] was “↓” and the Tenascin-C [4] was “↓”. The ASMA expression [5] was “inhibited”, the Akt activation [5] was “inhibited” and the ERK activation [5] was “enhanced”. For the same molecule, the JNK activation [5] was “enhanced”, the collagen expression [5] was “no effect” and the tenascin-C expression [5] was “no effect”. For the same molecule, the ASMA [5] was “↓”, the Ph-Akt [5] was “↓” and the Ph-ERK [5] was “↑”. For the same molecule, the Ph-JNK [5] was “↑”, the Collagen [5] was “—” and the Tenascin-C [5] was “—”.

In the case of `N#CC(=C(/N)Sc1ccccc1N)/C(C#N)=C(\N)Sc1ccccc1N` [Peptide U0126, U0126], the ASMA expression [4] is reported as “unaffected; also recorded: little or no effect”, the Akt activation [4] is reported as “little or no effect” and the ERK activation [4] is reported as “blocked”. The JNK activation [4] was “little or no effect”, the collagen expression [4] was “blocked” and the tenascin-C expression [4] was “inhibited; also recorded: blocked”. The ASMA [4] was “—”, the Ph-Akt [4] was “—” and the Ph-ERK [4] was “↓”. For the same molecule, the Ph-JNK [4] was “—”, the Collagen [4] was “↓” and the Tenascin-C [4] was “↓”. For the same molecule, the ASMA expression [5] was “unaffected; also recorded: little or no effect”, the Akt activation [5] was “little or no effect” and the ERK activation [5] was “blocked”. For the same molecule, the JNK activation [5] was “little or no effect”, the collagen expression [5] was “blocked” and the tenascin-C expression [5] was “inhibited; also recorded: blocked”. For the same molecule, the ASMA [5] was “—”, the Ph-Akt [5] was “—” and the Ph-ERK [5] was “↓”. For the same molecule, the Ph-JNK [5] was “—”, the Collagen [5] was “↓” and the Tenascin-C [5] was “↓”.

For “C: CSD subdomain C (96-101) synthesized in fusion with the Antennapedia internalization sequence (KYWFYR; also: fused to Antennapedia internalization sequence; UniProt Q03135 96-101, looked up, fragment)”, the “inhibition of collagen expression” value ([1]; 5 μM peptide) was “approximately 50%”, the “inhibition of ASMA expression” value [2] was “approximately 50%” and the “inhibition of collagen expression” value [2] was “approximately 50%”. The ASMA expression [2] was “inhibited”.

With `Oc1c2ccccc2c2c3c(cccc13)N=N2` [SP600125] the ASMA expression [4] was “no effect”, the ASMA [4] was “—” and the Ph-Akt [4] was “↓”. For the same molecule, the Ph-ERK [4] was “↓”, the Ph-JNK [4] was “↓” and the Collagen [4] was “↓”. For the same molecule, the Tenascin-C [4] was “↓”, the ASMA [5] was “↓” and the Ph-Akt [5] was “↓”. The Ph-ERK [5] was “↓”, the Ph-JNK [5] was “↓” and the Collagen [5] was “↓”. For the same molecule, the Tenascin-C [5] was “↓”.

With “B: CSD subdomain B (89-95) synthesized in fusion with the Antennapedia internalization sequence (FTTFTVT; also: fused to Antennapedia internalization sequence; UniProt Q03135 89-95, looked up, fragment)” the collagen expression [1, 6] was “did not inhibit”, the ASMA expression [1] was “did not inhibit” and the collagen expression [2, 6] was “did not inhibit”. The ASMA expression [2] was “did not inhibit” and the eNOS activity [3] was “most strongly inhibited”.
